Calls of active or inactive are those of the source.
Key:
[1] = NIH-3T3 fibroblast cytotoxicity, dose response, cytotoxicity control, cell-based, fluorescence, Alamar Blue, secondary assay (AID 2327); assay type: functional;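 further: NIH-3T3 mouse fibroblasts cultured with fluconazole at 8 µg/mL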
[2] = viability loss in THP-1 monocytes – THP-1 cells, cytotoxicity control for Vif-APOBEC3G degradation inhibitor project, dose response (AID 1117359); assay type: functional; conditions: THP-1
[3] = biological target: T1, Replicative DNA helicase DnaB (Mycobacterium tuberculosis, UniProt P9WMR3); test: DnaB intein splicing inhibitors, dose response, biochemical, cell-free fluorescence (AID 449749); assay type: functional
T1 sequence (P9WMR3 whole entry): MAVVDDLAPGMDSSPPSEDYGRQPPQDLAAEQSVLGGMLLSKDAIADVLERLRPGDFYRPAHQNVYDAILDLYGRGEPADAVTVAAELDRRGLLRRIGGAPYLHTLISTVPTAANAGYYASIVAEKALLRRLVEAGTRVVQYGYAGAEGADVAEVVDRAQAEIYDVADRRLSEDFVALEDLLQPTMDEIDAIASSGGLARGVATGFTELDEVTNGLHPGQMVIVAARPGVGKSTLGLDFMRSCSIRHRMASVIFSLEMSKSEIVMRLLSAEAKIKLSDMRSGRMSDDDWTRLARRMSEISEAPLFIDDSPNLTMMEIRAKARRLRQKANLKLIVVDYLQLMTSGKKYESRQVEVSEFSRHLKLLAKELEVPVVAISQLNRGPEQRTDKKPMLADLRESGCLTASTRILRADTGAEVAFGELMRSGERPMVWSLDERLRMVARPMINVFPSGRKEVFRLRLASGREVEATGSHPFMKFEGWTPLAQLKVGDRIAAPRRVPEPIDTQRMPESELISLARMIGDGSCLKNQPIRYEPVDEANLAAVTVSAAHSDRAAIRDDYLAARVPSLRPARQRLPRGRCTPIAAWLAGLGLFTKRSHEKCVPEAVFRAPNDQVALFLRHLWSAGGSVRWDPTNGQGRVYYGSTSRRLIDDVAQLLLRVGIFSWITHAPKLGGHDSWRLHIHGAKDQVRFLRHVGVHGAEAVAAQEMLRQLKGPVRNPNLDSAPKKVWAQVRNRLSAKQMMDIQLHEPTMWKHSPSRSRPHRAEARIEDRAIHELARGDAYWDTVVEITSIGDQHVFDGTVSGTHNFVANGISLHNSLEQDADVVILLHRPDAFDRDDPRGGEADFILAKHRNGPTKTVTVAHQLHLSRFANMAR

Protein RecA = biological target: T2, Protein RecA (Mycobacterium tuberculosis, UniProt P9WHJ3); test: Fluorescence Cell-Free Homogeneous Dose Retest to Identify Inhibitors of RecA-Intein Splicing Activity. [Related pubchem assays (depositor defined):AID2097, AID2223, AID489010, AID492950]; assay type: functional
T2 sequence (P9WHJ3 whole entry): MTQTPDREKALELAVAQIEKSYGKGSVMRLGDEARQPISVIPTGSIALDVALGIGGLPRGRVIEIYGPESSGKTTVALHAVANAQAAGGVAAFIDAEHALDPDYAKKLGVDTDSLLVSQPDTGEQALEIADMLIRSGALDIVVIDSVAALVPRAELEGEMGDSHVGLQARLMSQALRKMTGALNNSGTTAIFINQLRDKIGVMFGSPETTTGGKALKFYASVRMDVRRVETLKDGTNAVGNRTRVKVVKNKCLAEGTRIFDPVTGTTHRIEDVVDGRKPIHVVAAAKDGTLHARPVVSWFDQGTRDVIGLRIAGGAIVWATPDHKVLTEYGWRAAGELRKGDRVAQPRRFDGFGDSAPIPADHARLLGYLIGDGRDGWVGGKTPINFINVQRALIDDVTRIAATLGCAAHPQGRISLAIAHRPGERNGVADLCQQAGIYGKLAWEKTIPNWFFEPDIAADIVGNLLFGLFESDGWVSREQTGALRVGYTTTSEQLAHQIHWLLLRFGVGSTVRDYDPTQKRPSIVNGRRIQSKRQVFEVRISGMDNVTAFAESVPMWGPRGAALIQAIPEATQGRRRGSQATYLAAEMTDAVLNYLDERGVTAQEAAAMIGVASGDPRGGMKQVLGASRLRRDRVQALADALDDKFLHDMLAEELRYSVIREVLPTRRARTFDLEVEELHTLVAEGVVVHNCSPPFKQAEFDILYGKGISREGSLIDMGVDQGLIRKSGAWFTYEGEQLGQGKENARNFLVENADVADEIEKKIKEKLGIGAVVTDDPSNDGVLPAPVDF

[4] = biological target: T3, Sentrin-specific protease 8 (Homo sapiens, UniProt Q96LD8); assay type: functional
T3 sequence (Q96LD8 whole entry): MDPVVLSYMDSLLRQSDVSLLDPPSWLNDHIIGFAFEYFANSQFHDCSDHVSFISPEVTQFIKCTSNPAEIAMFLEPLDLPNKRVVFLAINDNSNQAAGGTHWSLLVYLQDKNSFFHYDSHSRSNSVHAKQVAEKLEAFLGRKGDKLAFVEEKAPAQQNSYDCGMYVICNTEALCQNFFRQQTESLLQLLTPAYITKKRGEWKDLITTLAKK

[5] = biological target: T3, Sentrin-specific protease 8; assay type: functional; remark: listed apart in the source
[6] = biological target: T4, Mannose-6-phosphate isomerase (Homo sapiens, UniProt P34949); test: MPI inhibition at elevated mannose 6-phosphate – biochemical, fluorescence intensity, high mannose 6-phosphate, primary screen (AID 1220)
T4 sequence (P34949 whole entry): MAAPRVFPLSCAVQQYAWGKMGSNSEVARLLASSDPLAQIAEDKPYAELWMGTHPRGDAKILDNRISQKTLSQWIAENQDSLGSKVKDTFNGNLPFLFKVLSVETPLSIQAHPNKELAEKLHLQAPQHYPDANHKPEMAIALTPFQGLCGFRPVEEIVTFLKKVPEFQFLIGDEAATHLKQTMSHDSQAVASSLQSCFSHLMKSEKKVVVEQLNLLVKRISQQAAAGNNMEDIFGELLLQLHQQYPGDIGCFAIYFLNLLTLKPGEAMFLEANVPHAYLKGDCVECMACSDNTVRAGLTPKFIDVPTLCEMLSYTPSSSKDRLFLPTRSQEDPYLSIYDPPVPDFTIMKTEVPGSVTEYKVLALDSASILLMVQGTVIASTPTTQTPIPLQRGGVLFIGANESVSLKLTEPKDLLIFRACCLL

[7] = biological target: Luciferin 4-monooxygenase (Photinus pyralis, UniProt P08659); test: Counter Screen for Luciferase-based Assay Positives. [Related pubchem assays: 620, 618, 411 ]
Luciferin 4-monooxygenase, sequence (P08659 whole entry): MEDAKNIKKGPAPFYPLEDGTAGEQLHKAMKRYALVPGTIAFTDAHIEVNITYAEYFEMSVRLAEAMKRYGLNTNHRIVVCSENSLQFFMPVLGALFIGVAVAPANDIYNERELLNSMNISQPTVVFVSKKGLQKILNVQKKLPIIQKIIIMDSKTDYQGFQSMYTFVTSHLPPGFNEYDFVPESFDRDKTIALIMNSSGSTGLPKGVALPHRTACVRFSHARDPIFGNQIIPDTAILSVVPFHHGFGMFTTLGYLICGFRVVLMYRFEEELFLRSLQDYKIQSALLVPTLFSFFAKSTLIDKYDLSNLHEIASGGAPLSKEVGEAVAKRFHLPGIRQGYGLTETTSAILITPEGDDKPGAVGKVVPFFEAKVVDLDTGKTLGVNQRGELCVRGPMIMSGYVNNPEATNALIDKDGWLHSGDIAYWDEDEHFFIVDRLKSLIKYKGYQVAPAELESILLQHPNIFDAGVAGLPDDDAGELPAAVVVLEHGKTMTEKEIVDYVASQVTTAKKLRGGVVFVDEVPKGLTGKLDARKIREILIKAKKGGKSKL

HT-1080 = test: HT1080 cell viability loss – fluorescence readout (AID 620); assay type: functional, cell-based; conditions: Homo sapiens
[8] = fluconazole-exposed Candida albicans growth modulators – fluorescence, retest, confirmation (AID 2467); assay type: functional, cell-based
Bcl-2-related protein A1 = biological target: T5, Bcl-2-related protein A1 (Mus musculus, UniProt Q07440); assay type: functional;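 further: confirmatory dose–response counterscreen on Bfl-1, used to check hits from a UBC13 polyubiquitin inhibitor campaign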
T5 sequence (Q07440 whole entry): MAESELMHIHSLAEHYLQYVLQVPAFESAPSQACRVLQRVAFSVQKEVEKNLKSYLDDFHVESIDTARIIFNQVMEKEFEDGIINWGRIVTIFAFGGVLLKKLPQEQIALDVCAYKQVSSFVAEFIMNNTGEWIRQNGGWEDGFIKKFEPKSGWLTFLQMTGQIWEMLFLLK

[9] = biological target: T6, Ubiquitin-conjugating enzyme E2 N (Homo sapiens, UniProt P61088); assay type: functional
T6 sequence (P61088 whole entry): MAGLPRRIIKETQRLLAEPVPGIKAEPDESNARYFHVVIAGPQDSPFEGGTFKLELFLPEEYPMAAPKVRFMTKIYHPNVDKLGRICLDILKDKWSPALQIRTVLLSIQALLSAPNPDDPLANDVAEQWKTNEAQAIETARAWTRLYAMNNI

[10] = biological target: T6, Ubiquitin-conjugating enzyme E2 N; assay type: functional; remark: listed apart in the source
[11] = biological target: T7, Small ubiquitin-related modifier 1 (Homo sapiens, UniProt P63165); test: SUMO1 protein interaction blockers, potency – biochemical, fluorescence polarization, uHTS hits, dose response (AID 624382); assay type: functional; conditions: read-out: IC50_Mean
T7 sequence (P63165 whole entry): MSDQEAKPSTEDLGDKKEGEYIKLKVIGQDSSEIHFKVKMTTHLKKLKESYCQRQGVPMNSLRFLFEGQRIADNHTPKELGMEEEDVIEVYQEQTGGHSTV

[12] = biological target: T7, Small ubiquitin-related modifier 1; test: SUMO1 protein-protein binding blockers, potency – biochemical, FRET, dose response (AID 624383); assay type: functional; conditions: read-out: IC50_Mean
[13] = biological target: T8, DNA repair and recombination protein RAD54-like (Homo sapiens, UniProt Q92698); test: RAD54 Holliday junction migration blockers – biochemical, fluorescence, cherry-picked samples, dose series, confirmation (AID 651657); assay type: functional
T8 sequence (Q92698 whole entry): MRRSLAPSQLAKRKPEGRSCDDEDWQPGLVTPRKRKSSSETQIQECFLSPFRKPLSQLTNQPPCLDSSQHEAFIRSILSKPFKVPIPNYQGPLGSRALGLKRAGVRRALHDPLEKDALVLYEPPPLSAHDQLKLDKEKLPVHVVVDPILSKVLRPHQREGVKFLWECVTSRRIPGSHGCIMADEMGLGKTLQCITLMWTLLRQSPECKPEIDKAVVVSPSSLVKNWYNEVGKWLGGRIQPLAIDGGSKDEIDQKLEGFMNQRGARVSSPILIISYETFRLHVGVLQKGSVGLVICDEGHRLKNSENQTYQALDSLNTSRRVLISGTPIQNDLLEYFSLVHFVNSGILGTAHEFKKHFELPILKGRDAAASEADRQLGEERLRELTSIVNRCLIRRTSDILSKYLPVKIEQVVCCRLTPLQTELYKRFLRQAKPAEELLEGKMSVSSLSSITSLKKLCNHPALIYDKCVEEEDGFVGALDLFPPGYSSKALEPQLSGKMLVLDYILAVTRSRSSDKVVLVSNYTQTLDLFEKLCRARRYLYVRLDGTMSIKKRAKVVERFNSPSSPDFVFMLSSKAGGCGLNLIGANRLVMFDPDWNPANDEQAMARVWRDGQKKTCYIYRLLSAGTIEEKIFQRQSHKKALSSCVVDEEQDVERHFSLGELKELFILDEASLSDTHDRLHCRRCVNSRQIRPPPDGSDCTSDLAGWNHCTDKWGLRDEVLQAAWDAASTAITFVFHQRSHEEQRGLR

[14] = biological target: T9, Rac GTPase-activating protein 1 (Homo sapiens, UniProt Q9H0H5); test: blockers of MgcRacGAP-driven Rac1 GTP hydrolysis – biochemical, ADP Hunter fluorescence, primary and confirmatory, confirmation (AID 624330); assay type: functional
T9 sequence (Q9H0H5 whole entry): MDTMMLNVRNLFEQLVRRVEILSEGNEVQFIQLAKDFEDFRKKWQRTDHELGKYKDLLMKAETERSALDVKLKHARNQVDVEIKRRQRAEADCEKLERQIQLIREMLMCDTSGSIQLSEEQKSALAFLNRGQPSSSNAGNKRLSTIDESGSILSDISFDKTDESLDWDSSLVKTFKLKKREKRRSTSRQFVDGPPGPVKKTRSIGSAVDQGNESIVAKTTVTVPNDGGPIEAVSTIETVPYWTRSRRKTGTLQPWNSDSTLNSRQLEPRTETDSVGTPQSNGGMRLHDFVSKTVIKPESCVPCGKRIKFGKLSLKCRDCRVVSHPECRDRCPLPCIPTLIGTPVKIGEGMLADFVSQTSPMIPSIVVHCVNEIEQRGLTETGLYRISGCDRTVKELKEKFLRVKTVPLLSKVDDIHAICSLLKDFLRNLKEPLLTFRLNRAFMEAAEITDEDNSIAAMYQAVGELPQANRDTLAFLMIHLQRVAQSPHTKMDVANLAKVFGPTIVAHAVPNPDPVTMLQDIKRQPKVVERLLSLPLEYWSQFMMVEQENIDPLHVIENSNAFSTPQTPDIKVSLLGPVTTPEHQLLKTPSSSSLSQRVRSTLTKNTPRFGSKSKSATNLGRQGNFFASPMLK

Protein Tat = biological target: T10, Protein Tat (Human immunodeficiency virus type 1 group M subtype B (isolate HXB2)(HIV-1), UniProt P04608); assay type: functional;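 further: tat binding to TAR RNA read out by fluorescence polarization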
T10 sequence (P04608 whole entry): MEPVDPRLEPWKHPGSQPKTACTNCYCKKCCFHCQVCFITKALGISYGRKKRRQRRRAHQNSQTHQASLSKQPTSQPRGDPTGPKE

cells = assay type: functional

SMILES: C=CCN(CC=C)S(=O)(=O)c1ccc(C(=O)Nc2nnc(COC)o2)cc1
- EC50 [1]: 63.3 µM (active)
- CC50 [2]: 15.4 µM (active)

SMILES: O=C1CC(c2ccccc2)=NN1c1ccc([N+](=O)[O-])cc1
- AC50 [3]: 5.46 µM (active)
- EC50 (Protein RecA): 4.05 µM (active)
- IC50 [4]: 33.2 µM (active)
- IC50 [5]: 52.3 µM (active)

SMILES: COC/C=C/C1=CC2=CC(=O)C(C)(OC(=O)c3cnc4ccccc4n3)C(=O)C2=CN1CCCOC(C)C (stereo not drawn)
- IC50 [4]: 19.9 µM (active)
- IC50 [5]: 8.09 µM (active)

SMILES: CCOC(=O)N1CCN(c2cc(NCCO)c([N+](=O)[O-])c3nonc23)CC1
- IC50 [6]: > 50 µM (not active)

SMILES: COc1cccc(C(=O)NCCC2=CCCCC2)c1
- EC50 [7]: < 0.2 µM (active)
- EC50 (HT-1080): > 50 µM (not active)

SMILES: O=C(CNc1ccc2ccccc2c1)N/N=C/c1ccc(C(=O)O)cc1
- IC50 [6]: > 50 µM (not active)

SMILES: O=C1NC(=O)C(Nc2ccccc2)C(=O)N1
- IC50 [4]: 22.5 µM (active)
- IC50 [5]: 28.5 µM (active)

SMILES: O=C(Nc1ccc(C2=NCCN2)cc1)c1ccc(C(=O)Nc2ccc(C3=NCCN3)cc2)c(Cl)c1
- EC50 [1]: > 160 µM (inactive)
- EC50 [8]: 0.157 µM (active)
- IC50 (Bcl-2-related protein A1): 9.71 µM (active)
- IC50 [9]: 3.32 µM (active)
- IC50 [10]: 1.7 µM (active)
- IC50 [11]: > 66.6 µM (inactive)
- IC50 [12]: 4.61 µM (active)
- AC50 [13]: 13.8 µM (active)
- IC50 [14]: 35.8 µM (active)

SMILES: CNC(=O)[C@@H]1C[C@H]1[C@@H](NC(=O)OCc1ccccc1)c1ccccc1
- IC50 (Protein Tat): > 100 µM (active)
- CC50 [2]: > 40 µM (active)

SMILES: COc1ccc(C2=Nc3ccccc3OC2)cc1
- EC50 [7]: < 0.2 µM (active)
- EC50 (HT-1080): > 50 µM (not active)
- IC50 (cells): 3.76 µM (active)
